In PubChem BioAssay AID2060505 (Molecular Pharmacology Branch, DTP, NCI, 2025):

System: 633275-114-R-J1-PDC complex spheroids, viability
Test: Anticancer human tumor 633275-114-R-J1-PDC patient-derived endometrial adenocarcinoma cell line growth inhibition [GQUAD]
Details: for IC50: curve of first compound; for viability, T/C: stronger effect = lower value; active means viability on the fitted dose curve at most 10% of control; inactive means the rest
Excerpt: DNA G-quadruplex Stabilizer Agents in Combinations in Complex Spheroids
A high-throughput screen of multi-cell type tumor spheroids was designed to identify active combinations of DNA G-quadruplex stabilizer agents and targeted small molecules. Complex spheroids include a stromal component modeled by human endothelial cells (HUVEC) and fibroblasts modeled by human mesenchymal stem cells (MSCs). The concentration ranges selected for each drug and investigational agent were based upon clinically achievable concentrations if the clinical Cmax of the agent was known.
Compounds. The drugs and investigational agents: pidnarulex (CX-5461; NSC782164), APTO-253 (NSC789042), BRACO-19 (NSC847499), peposertib (NSC802822), ceralasertib (NSC780249), elimusertib (NSC800525), camonsertib (NSC841442), AZD-1390 (NSC803789), olaparib (NSC753686), talazoparib (NSC767125), ART-558 (NSC835418), sotorasib (NSC818433), MRTX-1133 (NSC836407), SN-38 (NSC673596), topotecan (NSC609699), etoposide (NSC141540), doxorubicin (NSC123127), gemcitabine (NSC613327), 5-fluorouracil (NSC19893), paclitaxel (NSC125973), vemurafenib (NSC761431), panobinostat (NSC761190), R-306465 (JNJ-16241199; NSC773264), adavosertib (NSC754352), TP-3654 (NSC805149), carboplatin (NSC241240), KSQ-4279 (NSC840948), and staurosporine (NSC755774) were obtained from the National Cancer Institute (NCI) Developmental Therapeutics Program Chemical Repository (34). The FDA-approved anticancer drug set is available from the NCI Developmental Therapeutics Program. […] The stock solutions were prepared in dimethyl sulfoxide (DMSO, Sigma-Aldrich, St. Louis, MO, cat. D2650) at 800-fold the tested concentration and stored at -70 degrees C prior to their use. All drugs and investigational agents were tested over a range starting from a high concentration at or near the clinical Cmax and decreasing in half-log increments. If the clinical Cmax for an agent had not been determined, the highest concentration tested was 10 microM.
2.3 Cell Culture. All cells were maintained in an incubator at 37 degrees C and 5% CO2 with 95% humidity. The PDC lines were cultured according to standard operating procedures established by the NCI PDMR. All PDCs were thawed and cultured in Matrigel-coated flasks prepared with a working solution of 1X Ham's F-12 nutrient mix, without supplementation (Invitrogen, cat. 11765054), 100 U/mL penicillin-streptomycin (Invitrogen, cat. 15140122), and 2.5% Matrigel (Corning Inc., cat. 354248) for the first three passages. The 857933-349-R-J2-PDC line was cultured in 6C/Colon 1B media, which includes advanced DMEM/F-12 (Thermo Fisher Scientific, cat. 12634028), 10 mM HEPES (Thermo Fisher Scientific, cat. 15630080), 1X GlutaMAX supplement (Thermo Fisher Scientific, cat. 35050061), 0.1 mg/mL primocin (InvivoGen, cat. ant-pm-2), 10% defined fetal bovine serum, heat inactivated (HyClone Laboratories Inc., cat. SH30070.03HI), 50% L-WRN conditioned media (ATCC, cat. CRL-3276), 1.25 mM N-Acetyl-L-cysteine (Sigma-Aldrich, cat. A9165), 10 mM nicotinamide (Sigma-Aldrich, cat. N0636), 1X B-27 supplement (Thermo Fisher Scientific, cat. 17504044), 1X N-2 supplement (Thermo Fisher Scientific, cat. 17502048), 10 microM Y-27632 dihydrochloride (Tocris Bioscience, cat. 1254), and 50 ng/mL human EGF recombinant protein (Thermo Fisher Scientific, cat. PHG0311). The 485176-168-R4-J1-PDC line was cultured in Panc media, which includes all 6C/Colon 1B media components plus 100 ng/mL human FGF-10 (Thermo Fisher Scientific, cat. 100-26), 500 nM SB-431542 (Selleckchem, cat. S1067), and gastrin (Tocris, cat. 3006).
[…]

[1] = second compound 0.0316 µM, first compound 0.000999 µM
[2] = second compound 0.0316 µM, first compound 0.00316 µM
[3] = second compound 0.0316 µM, first compound 0.00999 µM
[4] = second compound 0.0316 µM, first compound 0.0316 µM
[5] = second compound 0.0316 µM, first compound 0.0999 µM
[6] = second compound 0.0316 µM, first compound 0.316 µM
[7] = second compound 0.1 µM, first compound 0.000999 µM
[8] = second compound 0.1 µM, first compound 0.00316 µM
[9] = second compound 0.1 µM, first compound 0.00999 µM
[10] = second compound 0.1 µM, first compound 0.0316 µM
[11] = second compound 0.1 µM, first compound 0.0999 µM
[12] = second compound 0.1 µM, first compound 0.316 µM
[13] = second compound 0.316 µM, first compound 0.000999 µM
[14] = second compound 0.316 µM, first compound 0.00316 µM
[15] = second compound 0.316 µM, first compound 0.00999 µM
[16] = second compound 0.316 µM, first compound 0.0316 µM
[17] = second compound 0.316 µM, first compound 0.0999 µM
[18] = second compound 0.316 µM, first compound 0.316 µM
[19] = second compound 1 µM, first compound 0.000999 µM
[20] = second compound 1 µM, first compound 0.00316 µM
[21] = second compound 1 µM, first compound 0.00999 µM
[22] = second compound 1 µM, first compound 0.0316 µM
[23] = second compound 1 µM, first compound 0.0999 µM
[24] = second compound 1 µM, first compound 0.316 µM
[25] = second compound 3.16 µM, first compound 0.000999 µM
[26] = second compound 3.16 µM, first compound 0.00316 µM
[27] = second compound 3.16 µM, first compound 0.00999 µM
[28] = second compound 3.16 µM, first compound 0.0316 µM
[29] = second compound 3.16 µM, first compound 0.0999 µM
[30] = second compound 3.16 µM, first compound 0.316 µM
[31] = second compound 10 µM, first compound 0.000999 µM
[32] = second compound 10 µM, first compound 0.00316 µM
[33] = second compound 10 µM, first compound 0.00999 µM
[34] = second compound 10 µM, first compound 0.0316 µM
[35] = second compound 10 µM, first compound 0.0999 µM
[36] = second compound 10 µM, first compound 0.316 µM
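Further: spheroids exposed to the agents for seven days.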
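Wherever viability, T/C is given: percent of DMSO vehicle control viability which is 100%.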

CCc1c2c(nc3ccc(O)cc13)-c1cc3c(c(=O)n1C2)COC(=O)[C@]3(O)CC + CN(C)c1ccc(Nc2c3ccc(NC(=O)CCN4CCCC4)cc3nc3cc(NC(=O)CCN4CCCC4)ccc23)cc1
3.31 nM: IC50 (second compound 0.316 µM)
< 0.999 nM: IC50 (second compound 10 µM)
2.72 nM: IC50 (second compound 0.1 µM)
inactive: viability, T/C [1] 82.3% | viability, T/C [2] 46.1% | viability, T/C [3] 34.6% | viability, T/C [4] 35.3% | viability, T/C [5] 26.1% | viability, T/C [6] 25.2% | viability, T/C [7] 77.6% | viability, T/C [8] 44.2% | viability, T/C [9] 36.1% | viability, T/C [10] 32% | viability, T/C [11] 30.2% | viability, T/C [12] 25.6% | viability, T/C [13] 73% | viability, T/C [14] 48.2% | viability, T/C [15] 38.1% | viability, T/C [16] 35.3% | viability, T/C [17] 29.4% | viability, T/C [18] 23.9% | viability, T/C [19] 68.4% | viability, T/C [20] 43.1% | viability, T/C [21] 40.3% | viability, T/C [22] 29.3% | viability, T/C [23] 23.9% | viability, T/C [24] 21.6% | viability, T/C [25] 60.8% | viability, T/C [26] 41.8% | viability, T/C [27] 34.9% | viability, T/C [28] 28.1% | viability, T/C [29] 23.5% | viability, T/C [30] 22.6% | viability, T/C [31] 31% | viability, T/C [32] 16% | viability, T/C [33] 15.7% | viability, T/C [34] 13.9% | viability, T/C [35] 15.6% | viability, T/C [36] 11.5%
2.01 nM: IC50 (second compound 3.16 µM)
2.76 nM: IC50 (second compound 1 µM)
2.92 nM: IC50 (second compound 0.0316 µM)

Cn1ncnc1[C@H]1c2n[nH]c(=O)c3cc(F)cc(c23)N[C@@H]1c1ccc(F)cc1 + CN(C)c1ccc(Nc2c3ccc(NC(=O)CCN4CCCC4)cc3nc3cc(NC(=O)CCN4CCCC4)ccc23)cc1
> 316 nM: IC50 (second compound 0.0316 µM) | IC50 (second compound 0.1 µM) | IC50 (second compound 0.316 µM) | IC50 (second compound 1 µM) | IC50 (second compound 3.16 µM)
< 0.999 nM: IC50 (second compound 10 µM)
inactive: viability, T/C [1] 103% | viability, T/C [2] 95.6% | viability, T/C [3] 82% | viability, T/C [4] 76.8% | viability, T/C [5] 65.4% | viability, T/C [6] 55.5% | viability, T/C [7] 97.6% | viability, T/C [8] 101% | viability, T/C [9] 98% | viability, T/C [10] 74.8% | viability, T/C [11] 70.6% | viability, T/C [12] 63.1% | viability, T/C [13] 95.2% | viability, T/C [14] 102% | viability, T/C [15] 86.5% | viability, T/C [16] 86.4% | viability, T/C [17] 71.2% | viability, T/C [18] 52.9% | viability, T/C [19] 102% | viability, T/C [20] 96.2% | viability, T/C [21] 91.9% | viability, T/C [22] 77.1% | viability, T/C [23] 63.6% | viability, T/C [24] 54.4% | viability, T/C [25] 84.9% | viability, T/C [26] 91.2% | viability, T/C [27] 79.7% | viability, T/C [28] 70% | viability, T/C [29] 59.3% | viability, T/C [30] 49.6% | viability, T/C [31] 31.5% | viability, T/C [32] 35.2% | viability, T/C [33] 35.4% | viability, T/C [34] 29.7% | viability, T/C [35] 26.3% | viability, T/C [36] 22%
